15 compounds from ChEMBL document CHEMBL5154675, “Design, Synthesis, and Biological Evaluation of 1-(Indolizin-3-yl)ethan-1-ones as CBP Bromodomain Inhibitors for the Treatment of Prostate Cancer” (J Med Chem, 2022) can be followed below.

Usually IC50 stands for the midpoint of a concentration-inhibition curve. One may read the ΔTm as the change in melting temperature against a reference sample. The Papp A→B is the apparent permeability from the apical to the basolateral side of a cell layer.

The subject of one series is LNCaP C4-2B. Nature of the series: Antiproliferative activity against human LNCaP C4-2B cells assessed as inhibition of cell growth by Celltiter-Glo assay. In kind it is functional, cell-based.
Series [1] deals with T1, CREB-binding protein (Homo sapiens, UniProt Q92793). The note with it: dose 200.0 µM, time 30.0 min.
Target sequence in this assay (Q92793 2-2442 limits assumed): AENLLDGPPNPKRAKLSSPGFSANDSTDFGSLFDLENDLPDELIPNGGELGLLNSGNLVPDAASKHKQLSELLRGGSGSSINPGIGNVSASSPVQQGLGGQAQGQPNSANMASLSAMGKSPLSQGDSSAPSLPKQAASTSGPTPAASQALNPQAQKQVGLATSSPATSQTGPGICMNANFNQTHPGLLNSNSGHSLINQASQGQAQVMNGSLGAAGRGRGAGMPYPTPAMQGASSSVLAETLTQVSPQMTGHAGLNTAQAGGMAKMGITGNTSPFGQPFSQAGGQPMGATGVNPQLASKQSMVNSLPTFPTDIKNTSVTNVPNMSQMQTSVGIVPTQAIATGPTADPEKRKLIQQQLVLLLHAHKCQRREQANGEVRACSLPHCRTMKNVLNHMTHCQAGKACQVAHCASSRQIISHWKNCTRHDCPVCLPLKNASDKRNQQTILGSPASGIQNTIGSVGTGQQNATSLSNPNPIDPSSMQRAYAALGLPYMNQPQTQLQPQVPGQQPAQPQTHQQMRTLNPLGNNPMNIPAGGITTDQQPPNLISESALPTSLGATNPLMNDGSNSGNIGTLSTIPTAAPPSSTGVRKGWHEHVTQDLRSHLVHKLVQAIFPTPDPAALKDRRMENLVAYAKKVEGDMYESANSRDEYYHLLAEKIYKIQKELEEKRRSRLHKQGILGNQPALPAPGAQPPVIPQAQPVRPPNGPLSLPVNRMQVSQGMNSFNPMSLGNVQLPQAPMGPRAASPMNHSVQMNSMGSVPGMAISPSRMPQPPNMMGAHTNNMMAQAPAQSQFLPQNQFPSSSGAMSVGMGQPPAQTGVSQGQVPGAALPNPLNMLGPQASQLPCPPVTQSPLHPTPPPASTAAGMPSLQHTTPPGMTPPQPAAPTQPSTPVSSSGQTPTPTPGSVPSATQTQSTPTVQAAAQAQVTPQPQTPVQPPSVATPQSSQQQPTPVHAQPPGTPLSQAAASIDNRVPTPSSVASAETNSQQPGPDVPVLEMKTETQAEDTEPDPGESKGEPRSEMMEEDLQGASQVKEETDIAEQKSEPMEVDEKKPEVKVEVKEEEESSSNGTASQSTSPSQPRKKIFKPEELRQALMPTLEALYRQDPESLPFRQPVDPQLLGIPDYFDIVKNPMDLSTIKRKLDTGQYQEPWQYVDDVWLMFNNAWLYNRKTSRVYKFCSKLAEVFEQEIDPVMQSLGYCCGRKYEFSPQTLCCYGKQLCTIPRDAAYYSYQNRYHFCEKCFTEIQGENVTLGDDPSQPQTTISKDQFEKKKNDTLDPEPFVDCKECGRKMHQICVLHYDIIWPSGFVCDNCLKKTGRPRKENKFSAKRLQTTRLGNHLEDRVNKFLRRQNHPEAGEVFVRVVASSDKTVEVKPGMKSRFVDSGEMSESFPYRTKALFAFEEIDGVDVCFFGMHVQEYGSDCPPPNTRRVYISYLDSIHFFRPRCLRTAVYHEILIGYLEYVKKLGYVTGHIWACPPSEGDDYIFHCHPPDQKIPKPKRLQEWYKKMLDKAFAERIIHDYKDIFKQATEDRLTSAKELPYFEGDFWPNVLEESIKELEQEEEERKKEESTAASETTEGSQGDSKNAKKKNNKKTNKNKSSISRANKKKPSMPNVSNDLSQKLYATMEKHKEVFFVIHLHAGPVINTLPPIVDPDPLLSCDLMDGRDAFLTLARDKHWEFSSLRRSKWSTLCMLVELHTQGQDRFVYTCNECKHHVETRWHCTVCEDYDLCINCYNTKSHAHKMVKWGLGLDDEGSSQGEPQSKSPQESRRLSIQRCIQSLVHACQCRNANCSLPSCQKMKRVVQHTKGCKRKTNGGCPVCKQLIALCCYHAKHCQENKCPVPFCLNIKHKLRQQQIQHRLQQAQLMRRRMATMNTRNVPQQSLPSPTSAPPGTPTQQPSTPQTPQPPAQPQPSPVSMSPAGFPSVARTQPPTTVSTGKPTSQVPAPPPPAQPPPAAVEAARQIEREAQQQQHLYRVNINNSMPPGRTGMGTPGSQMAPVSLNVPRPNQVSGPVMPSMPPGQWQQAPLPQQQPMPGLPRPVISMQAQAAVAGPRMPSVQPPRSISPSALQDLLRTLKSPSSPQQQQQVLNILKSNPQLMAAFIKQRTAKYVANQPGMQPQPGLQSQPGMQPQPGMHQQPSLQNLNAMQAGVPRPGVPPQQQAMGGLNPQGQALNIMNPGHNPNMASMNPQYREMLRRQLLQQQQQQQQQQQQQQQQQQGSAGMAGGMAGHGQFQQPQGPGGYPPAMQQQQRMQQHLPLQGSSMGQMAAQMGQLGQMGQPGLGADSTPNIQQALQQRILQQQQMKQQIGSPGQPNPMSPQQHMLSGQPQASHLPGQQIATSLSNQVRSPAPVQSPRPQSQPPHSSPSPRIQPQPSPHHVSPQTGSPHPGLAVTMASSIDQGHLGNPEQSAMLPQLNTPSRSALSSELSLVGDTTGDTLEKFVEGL
Series [2] is described as follows: Apparent permeability across apical to basolateral side in human Caco-2 cells assessed as drug recovery at 10 uM measured after 2 hrs by LC-MS/MS analysis. In kind it is ADME, cell-based. The note with it: read-out: Drug recovery.
A short description of series [3]: Apparent permeability across basolateral to apical side in human Caco-2 cells assessed as drug recovery at 10 uM measured after 2 hrs by LC-MS/MS analysis. The conditions noted are these: read-out: Drug recovery. Type of series: ADME, cell-based.
For series [4], the target named is T1, CREB-binding protein. Nature of the series: Inhibition of His6-tagged human CBP bromodomain (1081 to 1197 residues) expressed in Escherichia coli BL21 (DE3) incubated for 30 mins by HTRF assay. In general terms: Time-resolved FRET reads energy transfer from a long-lived donor to a nearby acceptor.
Target sequence in this assay (Q92793 whole entry): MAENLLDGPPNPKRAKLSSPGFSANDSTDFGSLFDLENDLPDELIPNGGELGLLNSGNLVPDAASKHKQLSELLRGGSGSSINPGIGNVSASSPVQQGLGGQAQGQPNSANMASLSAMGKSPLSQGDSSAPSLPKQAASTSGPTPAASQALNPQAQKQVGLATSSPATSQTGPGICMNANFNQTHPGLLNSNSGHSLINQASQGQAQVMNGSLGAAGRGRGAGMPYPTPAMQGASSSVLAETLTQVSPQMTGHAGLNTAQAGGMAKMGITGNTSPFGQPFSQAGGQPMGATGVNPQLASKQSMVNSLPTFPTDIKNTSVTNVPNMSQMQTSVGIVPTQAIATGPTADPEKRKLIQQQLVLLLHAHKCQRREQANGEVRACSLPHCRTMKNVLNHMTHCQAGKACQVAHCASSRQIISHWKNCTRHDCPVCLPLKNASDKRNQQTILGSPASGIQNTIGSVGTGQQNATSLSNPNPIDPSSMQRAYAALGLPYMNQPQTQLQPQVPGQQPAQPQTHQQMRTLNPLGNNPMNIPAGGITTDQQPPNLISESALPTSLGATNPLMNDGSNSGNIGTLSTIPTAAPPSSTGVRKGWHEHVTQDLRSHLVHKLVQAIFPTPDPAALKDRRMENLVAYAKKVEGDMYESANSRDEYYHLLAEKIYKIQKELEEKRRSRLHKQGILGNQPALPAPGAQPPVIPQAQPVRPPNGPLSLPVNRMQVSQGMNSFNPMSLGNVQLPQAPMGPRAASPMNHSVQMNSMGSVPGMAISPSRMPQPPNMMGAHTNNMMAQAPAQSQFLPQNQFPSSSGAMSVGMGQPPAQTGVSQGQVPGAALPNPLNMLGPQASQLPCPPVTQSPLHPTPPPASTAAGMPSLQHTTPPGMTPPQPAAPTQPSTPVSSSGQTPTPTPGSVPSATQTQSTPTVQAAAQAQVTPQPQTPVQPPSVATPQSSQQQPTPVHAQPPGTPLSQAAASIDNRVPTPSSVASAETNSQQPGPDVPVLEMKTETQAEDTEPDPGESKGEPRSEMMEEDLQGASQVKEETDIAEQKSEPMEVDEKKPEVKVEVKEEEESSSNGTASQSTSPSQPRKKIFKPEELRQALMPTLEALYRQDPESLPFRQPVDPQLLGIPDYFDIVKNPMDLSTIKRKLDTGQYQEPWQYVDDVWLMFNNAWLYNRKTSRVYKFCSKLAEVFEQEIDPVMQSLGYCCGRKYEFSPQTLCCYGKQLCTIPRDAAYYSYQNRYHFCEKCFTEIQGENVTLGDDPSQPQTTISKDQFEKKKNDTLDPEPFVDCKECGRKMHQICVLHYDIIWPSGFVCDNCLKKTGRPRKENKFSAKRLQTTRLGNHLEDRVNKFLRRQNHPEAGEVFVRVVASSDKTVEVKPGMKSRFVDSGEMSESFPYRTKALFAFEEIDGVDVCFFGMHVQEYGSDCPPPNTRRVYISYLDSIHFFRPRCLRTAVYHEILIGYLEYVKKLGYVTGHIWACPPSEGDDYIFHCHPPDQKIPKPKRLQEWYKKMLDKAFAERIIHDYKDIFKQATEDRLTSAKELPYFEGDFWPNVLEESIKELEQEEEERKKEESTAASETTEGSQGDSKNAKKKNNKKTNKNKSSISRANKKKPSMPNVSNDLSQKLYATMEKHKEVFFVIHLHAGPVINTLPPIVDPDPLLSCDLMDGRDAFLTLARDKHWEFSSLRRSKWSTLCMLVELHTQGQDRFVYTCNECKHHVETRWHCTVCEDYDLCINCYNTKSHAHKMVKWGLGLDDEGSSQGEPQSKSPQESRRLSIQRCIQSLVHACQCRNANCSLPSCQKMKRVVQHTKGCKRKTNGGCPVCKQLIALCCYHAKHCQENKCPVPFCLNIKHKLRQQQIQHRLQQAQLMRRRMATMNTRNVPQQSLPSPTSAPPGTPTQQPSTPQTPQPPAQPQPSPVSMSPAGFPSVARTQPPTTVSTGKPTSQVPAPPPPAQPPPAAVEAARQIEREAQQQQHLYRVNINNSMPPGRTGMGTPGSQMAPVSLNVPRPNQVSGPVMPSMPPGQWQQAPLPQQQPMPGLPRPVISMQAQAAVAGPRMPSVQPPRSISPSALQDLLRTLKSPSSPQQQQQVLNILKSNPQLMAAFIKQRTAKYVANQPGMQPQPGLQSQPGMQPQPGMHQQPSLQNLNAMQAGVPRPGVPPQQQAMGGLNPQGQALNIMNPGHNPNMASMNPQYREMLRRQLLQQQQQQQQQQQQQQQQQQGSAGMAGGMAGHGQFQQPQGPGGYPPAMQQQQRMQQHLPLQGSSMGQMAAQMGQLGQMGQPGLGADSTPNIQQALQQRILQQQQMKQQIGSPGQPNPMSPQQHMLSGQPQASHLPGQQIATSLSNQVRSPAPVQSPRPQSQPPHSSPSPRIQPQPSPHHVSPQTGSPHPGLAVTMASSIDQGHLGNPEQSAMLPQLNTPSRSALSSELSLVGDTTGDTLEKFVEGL
The nature of series [5]: Apparent permeability across apical to basolateral side in human Caco-2 cells at 10 uM measured after 2 hrs by LC-MS/MS analysis. Type of series: ADME, cell-based. (In general: Caco-2 monolayers are a common model of the intestinal barrier.)

Consider `Cn1cc(-c2cc(CO)cc(NC(=O)c3cc(C(=O)C(C)(C)C)n4ccc(O)cc34)c2F)cn1`, for which the half-inhibitory concentration (IC50) in the series with LNCaP C4-2B is 33.9 µM. At CREB-binding protein [1], the ΔTm worked out at 0.9 °C.

As for `CC(C)NCC(O)COc1ccc(CC(N)=O)cc1` (stereo not drawn) [ATENOLOL], the recovery at 2 h, 10 µM in series [2] was found to be 94.8%; in series [3] it was 94.2%.

Consider `CC(=O)c1cc(C(=O)Nc2cc(CO)cc(-c3cnn(C)c3)c2F)c2cc(OCc3ccccc3)ccn12`, for which, in the series with LNCaP C4-2B, the IC50 came out at 49.7 µM. Also, the ΔTm on CREB-binding protein [1] was found to be 3.9 °C.

In the case of `CC(=O)c1cc(C(=O)Nc2cc(CO)cc(-c3cnn(C4CC4)c3)c2F)c2cc(N)ccn12`, the IC50 came out at 0.00296 µM at CREB-binding protein [4] and 8.66 µM with LNCaP C4-2B. Moreover, at CREB-binding protein [1], the ΔTm worked out at 10.5 °C.

With `CC(=O)c1cc(C(=O)Nc2cc(C(C)O)cc(-c3cnn(C4CC4)c3)c2F)c2cc(OC(=O)N(C)C)ccn12` (stereo not drawn), the IC50 at CREB-binding protein [4] is 0.0262 µM; in the series with LNCaP C4-2B it was 9.09 µM. Further, the ΔTm on CREB-binding protein [1] was 10 °C.

As to `CNc1ccn2c(C(C)=O)cc(C(=O)Nc3cc(CO)cc(-c4cnn(C)c4)c3F)c2c1`, the IC50 is 0.0021 µM on CREB-binding protein [4] and more than 50 µM in the series with LNCaP C4-2B. Besides, the ΔTm on CREB-binding protein [1] is 9.9 °C.

Regarding `C[C@H]1O[C@@H](O[C@H]2[C@@H](O)C[C@H](O[C@H]3[C@@H](O)C[C@H](O[C@H]4CC[C@@]5(C)[C@H](CC[C@@H]6[C@@H]5C[C@@H](O)[C@]5(C)[C@@H](C7=CC(=O)OC7)CC[C@]65O)C4)O[C@@H]3C)O[C@@H]2C)C[C@H](O)[C@@H]1O` [DIGOXIN], in series [3], the recovery at 2 h, 10 µM came to 92.7%. In series [5], the Papp A→B at 2 h, 10 µM amounted to 12.6 nm/s.

In the case of `COc1ccn2c(C(C)=O)cc(C(=O)Nc3cc(F)cc(-c4cnn(C)c4)c3F)c2c1`, the IC50 at CREB-binding protein [4] is 0.0696 µM; with LNCaP C4-2B, more than 50 µM. For the same compound, at CREB-binding protein [1], the shift in melting temperature (ΔTm) worked out at 6.6 °C.

With `CC(=O)c1cc(C(=O)Nc2cc(CO)cc(-c3cnn(C)c3)c2F)c2cc(OC(=O)C(C)(C)C)ccn12`, the IC50 at CREB-binding protein [4] worked out at 0.042 µM; with LNCaP C4-2B, 29.6 µM. Also, the ΔTm at CREB-binding protein [1] is 6 °C.

`Cn1cc(-c2cc(CO)cc(NC(=O)c3cc(C(=O)C4CC4)n4ccc(O)cc34)c2F)cn1`: at CREB-binding protein [1], the ΔTm was found to be 2.1 °C.

Take `COc1ccn2c(C(C)=O)cc(C(=O)Nc3cc(C=O)cc(-c4cnn(C)c4)c3F)c2c1`: the IC50 on CREB-binding protein [4] is 0.013 µM; with LNCaP C4-2B, 17.4 µM. Besides, the ΔTm at CREB-binding protein [1] was determined as 5.4 °C.

Take `CC(=O)c1cc(C(=O)Nc2cc(CO)cc(-c3cnn(C4CC4)c3)c2F)c2cc(O)ccn12`: the IC50 at CREB-binding protein [4] is 0.0248 µM; with LNCaP C4-2B it was 29 µM. At CREB-binding protein [1], the ΔTm amounted to 14.1 °C.

As to `COc1ccn2c(C(C)=O)cc(C(=O)Nc3cc(C(F)(F)F)cc(-c4cnn(C)c4)c3F)c2c1`, in the series on LNCaP C4-2B, the IC50 is more than 50 µM. Further, the ΔTm on CREB-binding protein [1] was 2.7 °C.

Turning to `CC(=O)c1cc(C(=O)Nc2cc(C(C)O)cc(-c3cnn(C4CC4)c3)c2F)c2cc(O)ccn12` (stereo not drawn), the figures for the IC50 on CREB-binding protein [4] and in the series with LNCaP C4-2B were 0.079 µM and 42 µM, respectively. Further, at CREB-binding protein [1], the ΔTm was 12 °C.

As to `CC(=O)c1cc(C(=O)Nc2cc(CO)cc(-c3cnn(C)c3)c2F)c2cc(CN)ccn12`, the IC50 at CREB-binding protein [4] stood at 0.0556 µM; with LNCaP C4-2B, 13.4 µM. The ΔTm at CREB-binding protein [1] stood at 8.7 °C.
